According to US6521605B1, “Amidophosphate derivatives” (Eli Lilly and Company, priority 1998, dated 2003):

Biological target: T1, human GluR4B receptor (Homo sapiens, UniProt P48058)
T1 construct: expressed in transfected cells
Assay: potentiation of agonist-induced excitability of human GluR4B receptor expressed in HEK 293 cells
Assay type: cell-based
Settings: human GluR4B expressed in HEK 293 cells
Excerpt: The ability of compounds of formula I to potentiate glutamate receptor-mediated response may be determined using fluorescent calcium indicator dyes (Molecular Probes, Eugene, Oreg., Fluo-3) and by measuring glutamate-evoked efflux of calcium into GluR4 transfected HEK293 cells, as described in more detail below.
In one test, 96 well plates containing confluent monolayers of HEK cells stably expressing human GluR4B (obtained as described in European Patent Application Publication Number EP-A1-583917) are prepared. The tissue culture medium in the wells is then discarded, and the wells are each washed once with 200 μl of buffer (glucose, 10 mM, sodium chloride, 138 mM, magnesium chloride, 1 mM, potassium chloride, 5 mM, calcium chloride, 5 mM, N-[2-hydroxyethyl]-piperazine-N-[2-ethanesulfonic acid], 10 mM, to pH 7.1 to 7.3). […]
Each test is then performed as follows. […] A second fluorescent reading is taken after 5 minutes incubation. 15 μl of 400 μM glutamate solution is then added to each well (final glutamate concentration 100 μM), and a third reading is taken. The activities of test compounds and cyclothiazide solutions are determined by subtracting the second from the third reading (fluorescence due to addition of glutamate in the presence or absence of test compound or cyclothiazide) and are expressed relative to enhance fluorescence produced by 100 μM, cyclothiazide.

T1 sequence (P48058 21-902): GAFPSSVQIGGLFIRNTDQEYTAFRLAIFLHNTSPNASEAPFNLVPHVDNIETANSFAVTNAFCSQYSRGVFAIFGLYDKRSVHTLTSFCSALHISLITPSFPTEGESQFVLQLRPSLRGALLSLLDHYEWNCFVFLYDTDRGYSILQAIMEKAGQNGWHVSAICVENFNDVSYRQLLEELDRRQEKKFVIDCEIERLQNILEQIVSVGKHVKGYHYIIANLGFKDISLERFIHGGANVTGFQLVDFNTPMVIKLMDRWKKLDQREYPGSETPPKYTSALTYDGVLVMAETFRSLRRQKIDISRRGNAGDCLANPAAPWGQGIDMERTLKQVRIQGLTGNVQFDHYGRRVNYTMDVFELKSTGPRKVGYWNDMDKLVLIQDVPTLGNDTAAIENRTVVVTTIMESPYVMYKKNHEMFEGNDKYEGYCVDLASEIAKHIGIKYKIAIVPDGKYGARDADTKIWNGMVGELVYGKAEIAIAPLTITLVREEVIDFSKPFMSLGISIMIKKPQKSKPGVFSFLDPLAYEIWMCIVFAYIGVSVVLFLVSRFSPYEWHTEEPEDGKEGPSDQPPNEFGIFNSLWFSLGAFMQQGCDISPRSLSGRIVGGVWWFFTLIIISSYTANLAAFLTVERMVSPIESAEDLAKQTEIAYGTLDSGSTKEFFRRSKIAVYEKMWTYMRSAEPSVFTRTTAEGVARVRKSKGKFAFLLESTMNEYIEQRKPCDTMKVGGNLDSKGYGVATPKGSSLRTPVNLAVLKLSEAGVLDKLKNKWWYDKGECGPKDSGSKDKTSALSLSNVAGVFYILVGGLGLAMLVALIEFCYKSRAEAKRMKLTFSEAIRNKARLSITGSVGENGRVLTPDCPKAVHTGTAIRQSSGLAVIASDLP

NS(=O)(=O)c1cc2c(cc1Cl)NC(C1CC3C=CC1C3)NS2(=O)=O (stereo not shown) [cyclothiazide] was tested. Which “potentiation of agonist-induced excitability of human GluR4B receptor” value did it give?
Its value is “potentiate agonist-induced excitability”.
